Reference: patent US20220326244A1, “METHODS FOR DIAGNOSIS, PROGNOSIS, AND TREATMENT OF CANCER” (The Boardof Trustees of the Leland Stanford Junort …, priority 2019, published 2022)

Legend:
[1] = system: NK-92 cells; test: PMA-stimulated degranulation and intracellular cytokine production of NK-92 cells (CyTOF); assay type: cell-based, human; settings: mono- and coculture; PMA 4 h exposure
Source text: Intracellular cytokine production of CD9+ and CD9− NK-92 cells. One of the mechanisms by which dNK cells exert immune tolerance is through poor cytotoxic responses and secretion of a specific set of cytokines. Thus, we hypothesized that trogocytosis and the acquisition of CD9 by NK-92 cells endows them with features of immune tolerance. Therefore, we measured the intracellular expression levels of cytolytic proteins (perforin and granzyme B), anti-tumor cytokines ([…], TNFα, GM-CSF, IFNγ), the proangiogenic cytokine IL-8, the immunosuppressive cytokine IL-10, and CD107a, a marker for degranulation in both CD9+ and CD9− NK-92 cells after coculture with HGSC cells lines. Specifically, we measured NK-92 cell function before and after coculture in response to phorbol-12-myristate-13-acetate (PMA). Exposing cocultures to PMA circumvents upstream NK receptor signaling and is a convenient method for measuring NK cell function. In a pilot study, we determined that a coculture time of 6 h produced the most robust intracellular cytokine production (ICP). Therefore, NK-92 and HGSC cell lines were cocultured for 6 h in the presence of PMA (4 h exposure) with brefeldin A and monensin added to block secretion (Materials and Methods). For all experiments, we used two positive controls. […]

[2] = system: OVCAR4 (E) cell line; test: Carboplatin exposure of HGSC cell line, CyTOF with tumor NK receptor ligand/ADAM antibody panel; assay type: cell-based; settings: for frequency of cells expressing nectin 4: OVCAR4, 1 week
Method: (§1) FIG. 4. Responses to carboplatin across E, EV and V HGSC cell lines. OVCAR4 (E), Kuramochi (EV) and TYK-nu (V) cell lines exposed to vehicle or carboplatin at 0.5 or 1 μg/ml for 1 week were processed for CyTOF with the tumor NK receptor ligand/ADAM antibody panel. The parent population is defined as viable single cells negative for cisplatin and cPARP. The plots show frequencies of HGSC cells expressing activating and inhibitor NK receptor ligands (X-axis) gated out of the parent population (Y-axis). Plots show the mean of triplicates with standard deviations. p-values: *≤0.05, **≤0.005, for overall ANOVA.
(§2) Changes in NK receptor ligand expression levels in response to carboplatin. It is well established that activation of the DNA damage response with genotoxic agents increases the expression of ligands for NKG2D and DNAM1 thereby making a “stressed” cell more susceptible to NK cell killing. We therefore exposed the three HGSC cell lines to carboplatin, a genotoxic agent that is part of the standard-of-care regimen for women with HGSC. After one week, the HGSC cell lines were processed for CyTOF using the tumor/NK receptor ligand antibody panel (Table 12).
(§3) Sample Processing and Antibody Staining for CyTOF. Frozen, fixed single-cell suspensions of HGSC tumors or cell lines were thawed at room temperature. For each sample, 1×10^6 cells were aliquoted into cluster tubes in 96 well plates and subjected to pre-permeabilization palladium barcoding. After barcoding, pooled cells were pelleted and incubated for 10 min at room temperature with FcX block (Biolegend) to block non-specific antibody binding. Cells were then incubated with antibodies against surface markers for 45 min at room temperature. Cells were permeabilized at 4° C. with methanol or 1× Permeabilization Buffer (eBioscience) (only for the CyTOF antibody panel designed to characterize intracellular cytokines, on ice for 10 min. Cells were subsequently stained with antibodies against intracellular markers for 1 h at room temperature, washed, and incubated with the ^191/193Ir DNA intercalator (Fluidigm) at 4° C. overnight. Cells were washed and resuspended in a solution of normalization beads before introduction into the CyTOF 2.

[3] = system: TYK-nu (V) cell line; test: as above; assay type: cell-based; settings: for frequency of cells expressing nectin 4: baseline 6%
Method: as §1, §2, §3

[4] = system: Kuramochi (EV) cell line; test: as above; assay type: cell-based; settings: for frequency of cells expressing nectin 4: baseline 15%
Method: as §1, §2, §3

[5] = system: HGSC cell lines (OVCAR4, Kuramochi, TYK-nu); test: Carboplatin exposure of the three HGSC cell lines, CyTOF (stated for all lines together); assay type: cell-based
Method: as §1, §2
Sample Processing and Antibody Staining for CyTOF. Frozen, fixed single-cell suspensions of HGSC tumors or cell lines were thawed at room temperature. […]

[6] = system: NK-92 cells cocultured with non-HGSC tumor cell lines; test: Trogocytosis inhibition: CD9 uptake by NK-92 cells in coculture with non-HGSC cell lines; assay type: cell-based, human
Source text: Evaluation of NK-92 trogocyctosis from non-HGSC cell lines. In order to determine whether NK-92 CD9 trogocytosis was a feature of non-HGSC tumor cells, we established the frequency of CD9-expressing cells in 15 non-HGSC as well as 11 HGSC tumor cell lines (FIG. 6A). The frequency and levels of CD9-expressing tumor cells varied across the cell lines and are presented going from highest to lowest CD9 levels (FIGS. 6A and B). […] We therefore chose three non-HGSC tumor cell lines with high CD9 expression (HCT116, A431 and MCF7) and three with lower CD9 expression (HeLa, CaCo-2 and HepG2) for trogocytosis experiments (FIG. 6B). NK-92 trogocytosis from non-HGSC cell lines was highly varied, not correlated to CD9 levels and, aside from the HCT116 colorectal cancer cell line, less pronounced than from the HGSC cell lines (FIGS. 5C and 6C).
(§4) Trogocytosis inhibition. NK-92 cells were pre-treated with cytochalasin D (10 μM in complete media) for 2 h. They were then co-cultured with cancer cell lines as indicated in a ratio of 1:1 in the continuous presence of cytochalasin D for a further 2 h after which cells were stained with antibodies against CD9, CD45 and processed prior to CyTOF analysis as described above.

[7] = system: NK-92 cells cocultured with OVCAR4, Kuramochi and TYK-nu HGSC tumor cell lines; test: Trogocytosis inhibition: CD9 acquisition by NK-92 cells in coculture with HGSC cell lines; assay type: cell-based, human
Method: To further confirm that the mechanism of CD9 acquisition by NK-92 cells was through trogocytosis we performed an additional series of experiments. Many studies have shown that inhibitors of actin polymerization block trogocytosis but that the effect of these inhibitors vary depending on the cell type.
as §4

`CCCCCCCCCCCCCC(=O)O[C@@H]1[C@@H](C)[C@@]2(O)[C@@H](C=C(CO)C[C@]3(O)C(=O)C(C)=C[C@@H]23)[C@@H]2C(C)(C)[C@]12OC(C)=O` [PMA, phorbol-12-myristate-13-acetate] was tested. Which “NK-92 cell degranulation (CD107a) and production of MIP1a” value [1] did it give?
Its value is “robust responses”.

`N.N.O=C([O-])C1(C(=O)[O-])CCC1.[Pt+2]` [carboplatin] was tested. Which “frequency of cells expressing HLA-E” value ([2]; OVCAR4, after carboplatin 1 week) did it give?
The value was “significant increases”.

And the “frequency of cells expressing nectin 4” value ([2]; first listed of two carboplatin doses (0.5 or 1 μg/ml), baseline 24%)?
The value was 39%.

What about the “frequency of cells expressing nectin 4” value ([2]; second listed of two carboplatin doses (0.5 or 1 μg/ml), baseline 24%) of the same compound?
Its value is 45%.

And the “frequency of OVCAR4 cells expressing ULBP2” value ([2]; after carboplatin (0.5 or 1 μg/ml, 1 week), baseline 24%)?
Its value is 50%.

And the “frequency of cells expressing HLA-E” value ([3]; TYK-nu, after carboplatin 1 week)?
Its value is “significant increases”.

What about the “frequency of cells expressing nectin 4” value ([3]; TYK-nu, first listed of two carboplatin doses) of the same compound?
The value was 9%.

And the “frequency of cells expressing nectin 4” value ([3]; TYK-nu, second listed of two carboplatin doses)?
The value was 9%.

And the “CD111 in TYK-nu cells” value ([3]; after carboplatin 1 week)?
Its value is “significant increase”.

And the “frequency of cells expressing HLA-E” value ([4]; Kuramochi, after carboplatin 1 week)?
Its value is “significant increases”.

What about the “frequency of cells expressing nectin 4” value ([4]; Kuramochi, first listed of two carboplatin doses) of the same compound?
The value was 22%.

What about the “frequency of cells expressing nectin 4” value ([4]; Kuramochi, second listed of two carboplatin doses) of the same compound?
Its value is 23%.

And the “frequency of Kuramochi cells expressing HLA-ABC” value ([4]; after carboplatin 1 week)?
The value was “significant increase”.

And the “proportion of HGSC tumor cells that expressed NK inhibitory receptor ligands” value ([5]; all three cell lines, after carboplatin)?
The value was “increased”.

And the “DNA damage response: pH2AX” value ([5]; carboplatin 0.5 or 1 μg/ml for 1 week)?
Its value is “increase”.

With `C=C1[C@@H](C)[C@H]2[C@H](Cc3ccccc3)NC(=O)[C@]23[C@H](OC(C)=O)/C=C/[C@@](C)(O)C(=O)[C@@H](C)C/C=C/[C@H]3[C@@H]1O` [cytochalasin D] as the compound, how does the “CD9 uptake in NK-92” value ([6]; non-HGSC cell lines, most marked for HCT116, MCF7 and CaCo2) read?
Its value is “partially inhibited”.

And the “inhibition of trogocytosis (non-HGSC cell coculture)” value ([6]; preincubation of NK-92 cells with cytochalasin D (10 μM))?
The value was “partial inhibition”.

What about the “reduction of CD9+ NK-92 cells” value ([7]; NK-92 pre-incubated 2 h with cytochalasin D, coculture in its presence with OVCAR4, Kuramochi and TYK-nu) of the same compound?
The value was 40-69%.

What about the “inhibition of trogocytosis (HGSC cell line coculture)” value ([7]; pre-incubation of NK-92 cells with cytochalasin D (10 μM)) of the same compound?
Its value is “partial inhibition”.
